Laboratory results reported in ChEMBL document CHEMBL1124011, “Retinobenzoic acids. 1. Structure-activity relationships of aromatic amides with retinoidal activity” (1988).
Calls of active or inactive are those of the source. The rule behind the calls is not given here.

Experiments:
[1] = test system: Panel leukemia (Carcinoma cell lines); assay: Effective dose for differentiation -inducing activity against human promyelocytic leukemia cells; assay type: functional; conditions: read-out: ED50 (the source's name)
[2] = Ratio of the ED50 of compound to that of ED50 of retinoic acid, expressed as relative activity; assay type: functional
[3] = test system: Panel leukemia (Carcinoma cell lines); assay: Effective dose for differentiation-inducing activity against human promyelocytic leukemia cells; assay type: functional, cell-based

With `CC(C)(C)c1cccc(NC(=O)c2ccc(C(=O)O)cc2)c1` the EC50 [1] was 700 nM and the Ratio [2] was 3.2.

With `O=C(O)c1ccc(C(=O)Nc2cccc3c2CCCC3)cc1` the ED50 [3] was “inactive”.

For `O=C(O)c1ccc(C(=O)Nc2cccc3ccccc23)cc1`, the ED50 [3] was “inactive”.

`CC(C)c1ccc(NC(=O)c2ccc(C(=O)O)cc2)cc1` gave an EC50 [1] of 910 nM and a Ratio [2] of 9.8.

Compound `CN(C(=O)c1ccc2c(c1)C(C)(C)CCC2(C)C)c1ccc(C(=O)O)cc1` has an EC50 [1] of over 1000 nM and a Ratio [2] of under 0.0001.

For `CC(C)c1ccc(C(C)C)c(NC(=O)c2ccc(C(=O)O)cc2)c1`, the ED50 [3] was “inactive”.

`CC(C)(C)c1ccc(NC(=O)c2ccc(C(=O)O)cc2)cc1` showed an EC50 [1] of over 10000 nM and a Ratio [2] of under 0.001.

Work on `CC1(C)CCOc2ccc(NC(=O)c3ccc(C(=O)O)cc3)cc21` yielded an EC50 [1] of over 1000 nM and a Ratio [2] of under 0.0001.

With `CC(C)(C)c1ccc(C(=O)Nc2ccc(C(=O)O)cc2)cc1` the EC50 [1] was over 10000 nM and the Ratio [2] was under 0.001.

For `Cc1cccc(NC(=O)c2ccc(C(=O)O)cc2)c1`, the ED50 [3] was “inactive”.

For `CCc1cccc(NC(=O)c2ccc(C(=O)O)cc2)c1`, the ED50 [3] was “inactive”.

`CC1=C(/C=C/C(C)=C/C=C/C(C)=C/C(=O)O)C(C)(C)CCC1` [TRETINOIN] gave an EC50 [1] of 2.4 nM and a Ratio [2] of 1.

Compound `CC1(C)CCOc2c(Cl)cc(C(=O)Nc3ccc(C(=O)O)cc3)cc21` has an EC50 [1] of 75 nM and a Ratio [2] of 0.037.

In the case of `O=C(O)c1ccc(NC(=O)c2ccccc2)cc1`, the ED50 [3] is reported as “inactive”.

For `CC1(C)CCC(C)(C)c2cc(NC(=O)c3ccc(C(=O)O)cc3)ccc21` [TAMIBAROTENE], the EC50 [1] was 0.79 nM and the Ratio [2] was 3.5.

Work on `CCc1ccc(NC(=O)c2ccc(C(=O)O)cc2)cc1CC` yielded an EC50 [1] of 260 nM and a Ratio [2] of 0.0077.

`CC12CCC(C)(CC1)c1cc(NC(=O)c3ccc(C(=O)O)cc3)ccc12` showed an EC50 [1] of 68 nM and a Ratio [2] of 0.059.

`CC(C)c1ccc(C(=O)Nc2ccc(C(=O)O)cc2)cc1C(C)C` gave an EC50 [1] of 68 nM and a Ratio [2] of 0.04.

In the case of `CN(C)c1cccc(NC(=O)c2ccc(C(=O)O)cc2)c1`, the ED50 [3] is reported as “inactive”.

With `CC(C)c1cc(NC(=O)c2ccc(C(=O)O)cc2)cc(C(C)C)c1` the EC50 [1] was 38 nM and the Ratio [2] was 0.042.

With `O=C(O)c1ccc(C(=O)Nc2cccc(Br)c2)cc1` the ED50 [3] was “inactive”.

In the case of `O=C(O)c1ccc(C(=O)Nc2ccccc2)cc1`, the ED50 [3] is reported as “inactive”.

Compound `O=C(O)c1ccc(C(=O)Nc2cccc(C3CCCCC3)c2)cc1` has an EC50 [1] of over 1000 nM and a Ratio [2] of under 0.0001.

With `CC1(C)CCC(C)(C)c2c(NC(=O)c3ccc(C(=O)O)cc3)cccc21` the EC50 [1] was over 1000 nM and the Ratio [2] was under 0.0001.

Compound `CC1(C)CCC(C)(C)c2cc(NC(=O)c3ccc(C(=O)O)cc3)c(N)cc21` has an EC50 [1] of 560 nM and a Ratio [2] of 0.011.

In the case of `CC(C)c1cccc(NC(=O)c2ccc(C(=O)O)cc2)c1`, the EC50 [1] is reported as 680 nM and the Ratio [2] is reported as 1.3.

In the case of `CC(C)(C)c1cc(C(C)(C)C)c(NC(=O)c2ccc(C(=O)O)cc2)c(C(C)(C)C)c1`, the ED50 [3] is reported as “inactive”.

In the case of `CC(C)c1cccc(C(C)C)c1NC(=O)c1ccc(C(=O)O)cc1`, the ED50 [3] is reported as “inactive”.

With `CC1(C)CCOc2ccc(C(=O)Nc3ccc(C(=O)O)cc3)cc21` the EC50 [1] was 800 nM and the Ratio [2] was 0.0035.

In the case of `CC(C)c1ccccc1NC(=O)c1ccc(C(=O)O)cc1`, the ED50 [3] is reported as “inactive”.

For `CC(C)(C)c1cccc(C(=O)Nc2ccc(C(=O)O)cc2)c1`, the EC50 [1] was over 10000 nM and the Ratio [2] was under 0.001.

`Cc1cc2c(cc1NC(=O)c1ccc(C(=O)O)cc1)C(C)(C)CCC2(C)C` showed an EC50 [1] of 350 nM and a Ratio [2] of 0.006.

With `CC(C)c1ccc(NC(=O)c2ccc(C(=O)O)cc2)c(C(C)C)c1` the ED50 [3] was “inactive”.

Work on `CC1(C)CCC(C)(C)c2cc(C(=O)Nc3ccc(C(=O)O)cc3)ccc21` yielded an EC50 [1] of 0.34 nM and a Ratio [2] of 7.2.

For `O=C(O)c1ccc(C(=O)Nc2ccc3ccccc3c2)cc1`, the ED50 [3] was “inactive” and the Ratio [2] was 3.5.

Work on `CN(C(=O)c1ccc(C(=O)O)cc1)c1ccc2c(c1)C(C)(C)CCC2(C)C` yielded an EC50 [1] of over 1000 nM and a Ratio [2] of under 0.0001.

With `O=C(O)c1ccc(C(=O)Nc2cccc(-c3ccccc3)c2)cc1` the ED50 [3] was “inactive”.

`O=C(O)c1ccc(C(=O)Nc2ccc3c(c2)C2CCC3CC2)cc1` gave an EC50 [1] of over 10000 nM and a Ratio [2] of under 0.001.

`CC(C)(C)c1cc(NC(=O)c2ccc(C(=O)O)cc2)cc(C(C)(C)C)c1` showed an EC50 [1] of 36 nM and a Ratio [2] of 0.15.

`CC1(C)CCC(C)(C)c2cc([N+](=O)[O-])c(NC(=O)c3ccc(C(=O)O)cc3)cc21` showed an EC50 [1] of over 10000 nM and a Ratio [2] of under 0.001.

`CC(C)(C)c1cc(C(=O)Nc2ccc(C(=O)O)cc2)cc(C(C)(C)C)c1` showed an EC50 [1] of 48 nM and a Ratio [2] of 0.056.

`CC(C)c1ccc(NC(=O)c2ccc(C(=O)O)cc2)cc1C(C)C` showed an EC50 [1] of 2.1 nM and a Ratio [2] of 1.4.

Compound `CC1(C)CCC(C)(C)c2cc(NC(=O)c3ccc(C(=O)O)cc3)c(Br)cc21` has an EC50 [1] of over 1000 nM and a Ratio [2] of under 0.0001.

With `CC1(C)CCS(=O)(=O)c2ccc(C(=O)Nc3ccc(C(=O)O)cc3)cc21` the ED50 [3] was “inactive”.

Compound `CC1(C)CCSc2ccc(NC(=O)c3ccc(C(=O)O)cc3)cc21` has an EC50 [1] of 73 nM and a Ratio [2] of 0.051.
